Measured values reported in patent US6864217B2, “Herbicidal compositions with substituted phenylsulfonylureas for controlling weeds in rice” (Hoechst Schering AgrEvo GmbH, priority 1998, dated 2005).
Counter-ions that a name gives are not always drawn.

Tests used:
[1] = system: Cucumis dipsaceus; test: Table 1: weed control by A1*), safener C3-1) and combination; format: in vivo
Method: (§5) The examples mentioned below were carried out in the greenhouse, and in some instances, in field trials.

[2] = system: Oryza sativa (paddy rice); test: Table 1: damage to paddy rice; format: in vivo
Method: as §5

[3] = system: Echinochloa crusgalli; test: Table 5 field trial, treatment at the 2-4 leaf stage rice: weed control; format: in vivo; settings: evaluation after 28 days
Method: as §5

[4] = system: Echinochloa crusgalli; test: Table 6 field trial, treatment at the 1-2 leaf stage: weed control; format: in vivo; settings: 2 g of ai/ha, 28 days after application
Method: as §5

[5] = system: Echinochloa crusgalli; test: Table 7 field trial, treatment at the 1-2 leaf stage: weed control; format: in vivo; settings: 2 g of ai/ha, 28 days after application
Method: as §5

[6] = system: Oryza sativa; test: Table 8 greenhouse trial, treatment at the 1-2 leaf stage: rice damage; format: in vivo; settings: 22 days after application
From the text: Seeds or rhizome pieces of mono- and dicotyledonous weed plants are placed into sandy loam soil in plastic pots, covered with soil and grown in a greenhouse under good growth conditions (temperature, atmospheric humidity, water supply). Weeds which are encountered in the cultivation of rice are cultivated in pots in which the water level is up to 2 cm over the soil surface. […] The active compound combinations according to the invention, formulated as wettable powders or emulsion concentrates, and, in parallel experiments, the correspondingly formulated individual active compounds are sprayed onto the green parts of the plants at different dosages using an amount of water of 300 to 600 l/ha (converted), and, after about 3 to 4 weeks of the test plants in the greenhouse under optimum growth conditions (temperature, atmospheric humidity, water supply), the effect of the preparations is evaluated visually in comparison to untreated controls. In the case of rice or weeds which are encountered in the cultivation of rice, the active compounds are also added directly to the water for irrigation (application analogous to the so-called granules application) or sprayed onto plants and added to the water for irrigation. The experiments were designed with several, up to five, repetitions. The herbicidal compositions according to the invention also have good herbicidal post-emergence activity against a broad spectrum of economically important weed grasses and broad-leaved weeds.

[7] = system: Scirpus juncoides; test: Table 10 greenhouse trial, treatment at the 1-2 leaf stage: weed control; format: in vivo; settings: 20 days after application
Method: (§1) Seeds or rhizome pieces of mono- and dicotyledonous weed plants are placed into sandy loam soil in plastic pots, covered with soil and grown in a greenhouse under good growth conditions (temperature, atmospheric humidity, water supply). Weeds which are encountered in the cultivation of rice are cultivated in pots in which the water level is up to 2 cm over the soil surface. Three weeks after sowing, the test plants are treated at the three-leaf stage. The active compound combinations according to the invention, formulated as wettable powders or emulsion concentrates, and, in parallel experiments, the correspondingly formulated individual active compounds are sprayed onto the green parts of the plants at different dosages using an amount of water of 300 to 600 l/ha (converted), and, after about 3 to 4 weeks of the test plants in the greenhouse under optimum growth conditions (temperature, atmospheric humidity, water supply), the effect of the preparations is evaluated visually in comparison to untreated controls. In the case of rice or weeds which are encountered in the cultivation of rice, the active compounds are also added directly to the water for irrigation (application analogous to the so-called granules application) or sprayed onto plants and added to the water for irrigation. The experiments were designed with several, up to five, repetitions. The herbicidal compositions according to the invention also have good herbicidal post-emergence activity against a broad spectrum of economically important weed grasses and broad-leaved weeds.
(§2) Greenhouse trial: Treatment at the 1-2 leaf stage, evaluation 20 days after the application.

[8] = system: Oryza sativa; test: Table 10 greenhouse trial, treatment at the 1-2 leaf stage: rice damage; format: in vivo; settings: in vivo
Method: as §1, §2

[9] = system: Echinochloa crusgalli; test: Table 11 greenhouse trial, treatment at the 1-2 leaf stage: weed control; format: in vivo; settings: 20 days after application
Method: as §1, §2

[10] = system: Cyperus serotinus; test: Table 12 greenhouse trial, treatment at the 1-2 leaf stage: weed control; format: in vivo; settings: 20 days after application
Method: as §1, §2

[11] = system: Sagittaria pygmaea; test: Table 13 greenhouse trial, treatment at the 5-6 leaf stage: weed control; format: in vivo; settings: 20 days after application
Method: as §1
Greenhouse trial: Treatment at the 5-6 leaf stage, evaluation 20 days after the application.

[12] = system: Sagittaria pygmaea; test: Table 14 greenhouse trial, treatment at the 3-4 leaf stage: weed control; format: in vivo; settings: 21 days after application
Method: as §1
Greenhouse trial: Treatment at the 3-4 leaf stage, evaluation 21 days after the application.

[13] = system: Scirpus maritimus; test: Table 15 greenhouse trial, treatment at the 2-3 leaf stage: weed control; format: in vivo; settings: 20 days after application
Method: as §1

[14] = system: Oryza sativa; test: Table 15 greenhouse trial, treatment at the 2-3 leaf stage: rice damage; format: in vivo; settings: 20 days after application
Method: as §1

[15] = system: Ipomoea hederacea; test: Table 20 field trial, treatment at the 4-6 leaf stage: weed control; format: in vivo; settings: 2.5 g of ai/ha, 28 days after application
From the text: (§3) Field trial: Treatment at the 4-6 leaf stage, evaluation 28 days after the application.

[16] = system: Oryza sativa; test: Table 20 field trial, treatment at the 4-6 leaf stage: rice damage; format: in vivo; settings: 2.5 g of ai/ha, 28 days after application
From the text: as §3

[17] = system: Oryza sativa; test: Table 21 field trial, treatment at the 2 leaf stage: rice damage; format: in vivo; settings: 2.5 g of ai/ha; field trial, 28 days after application
From the text: Field trial: Treatment at the 2 leaf stage, evaluation 28 days after the application.

[18] = system: Sagittaria pygmaea; test: Table 22 field trial, treatment: 1-2 leaf stage: weed control; format: in vivo; settings: 28 days after application
From the text: (§4) Field trial: Treatment: 1-2 leaf stage, evaluation 28 days after the application.

[19] = system: Oryza sativa; test: Table 22 field trial, treatment: 1-2 leaf stage: rice damage; format: in vivo; settings: 28 days after application
From the text: as §4

[20] = system: Polygonum convolvulus; test: Table 25 field trial, treatment at the 3 leaf stage: weed control; format: in vivo; settings: 33 days after application
From the text: Field trial: Treatment at the 3 leaf stage, evaluation 33 days after the application.

[21] = system: Oryza sativa; test: Table 4 field trial: rice damage
Method: as §5

[22] = system: Oryza sativa; test: Table 2 field trial, treatment at the 1-2 leaf stage rice: rice damage; settings: 28 days after application
Method: as §5

COC(=O)c1ccc(I)cc1S(=O)(=O)NC(=O)Nc1nc(C)nc(OC)n1 [A1*), Sodium salt of methyl 4-iodo-2-[3-(4-methoxy-6-methyl-1,3,5-triazin-2-yl)ureidosulfonyl]benzoate]
CUMDI % control ([1]; 1.25 g of ai/ha): 60% | CUMDI % control ([1]; 2.5 g of ai/ha): 80% | ORYSW % damage ([2]; 1.25 g of ai/ha): 15% | ORYSW % damage ([2]; 2.5 g of ai/ha): 15% | ECHCG % control ([3]; 1.25 g of ai/ha): 0% | ECHCG % control ([3]; 2.5 g of ai/ha): 0% | ECHCG % control ([3]; 5 g of ai/ha): 0% | ECHCG % control [4]: 10% | ECHCG % control [5]: 10% | ORYSW % damage ([6]; 1.5 g of ai/ha): 10% | ORYSW % damage ([6]; 3 g of ai/ha): 10% | SCIJU % control ([7]; 1.5 g of ai/ha): 40% | SCIJU % control ([7]; 3 g of ai/ha): 40% | ORYSW % damage [8]: 10% | ECHCG % control ([9]; 1.5 g of ai/ha): 40% | ECHCG % control ([9]; 3 g of ai/ha): 60% | CYPSE % control ([10]; 1.5 g of ai/ha): 10% | CYPSE % control ([10]; 3 g of ai/ha): 30% | SAGPY % control ([11]; 1.5 g of ai/ha): 30% | SAGPY % control ([11]; 3 g of ai/ha): 50% | SAGPY % control ([12]; 1.5 g of ai/ha): 30% | SAGPY % control ([12]; 3 g of ai/ha): 50% | SCIMA % control ([13]; 1.25 g of ai/ha): 35% | SCIMA % control ([13]; 2.5 g of ai/ha): 40% | SCIMA % control ([13]; 5 g of ai/ha): 45% | ORYSW % damage ([14]; 1.25 g of ai/ha): 5% | ORYSW % damage ([14]; 2.5 g of ai/ha): 10% | ORYSW % damage ([14]; 5 g of ai/ha): 10% | IPOHE % control [15]: 30% | ORYSW % damage [16]: 8% | ORYSW % damage [17]: 8% | SAGPY % control ([18]; 2.5 g of ai/ha): 20% | SAGPY % control ([18]; 5 g of ai/ha): 40% | ORYSW % damage ([19]; 2.5 g of ai/ha): 6% | ORYSW % damage ([19]; 5 g of ai/ha): 12% | POLCO % control ([20]; 1.25 g of ai/ha): 35% | POLCO % control ([20]; 2.5 g of ai/ha): 80% | ORYSW % damage ([21]; 1.25 g of ai/ha): 0% | ORYSW % damage ([21]; 2.5 g of ai/ha): 0% | ORYSW % damage ([21]; 5 g of ai/ha): 1% | ORYSW % damage ([22]; 1.25 g of ai/ha): 10% | ORYSW % damage ([22]; 2.5 g of ai/ha): 25% | ORYSW % damage ([22]; 5 g of ai/ha): 25%
